How the values were obtained:
[1] = prior-art NO-releasing small molecules; cited from earlier work

| SMILES | melting point | lifetime in physiological solution [1] |
| --- | --- | --- |
| O=C(CCCCCO[N+](=O)[O-])Oc1ccc(-c2coc3cc(OC(=O)CCCCCO[N+](=O)[O-])ccc3c2=O)cc1 | 100 to 102 °C |  |
| CC(C)(SN=O)C(N)C(=O)O (racemic) [S-nitroso-D,L-penicillamine] |  | no more than about an hour |
| N[C@@H](CSN=O)C(=O)O [S-nitrosocysteine] |  | no more than about an hour |

— patent US8062653B2, “Controlled release of nitric oxide and drugs from functionalized macromers and oligomers” (Bezwada Biomedical, LLC, priority 2009, dated 2011)
